Values quoted from earlier work, collected in PMC2810191 (Biochemistry, 2009).

System: Bacillus anthracis

Q: Which “inhibition of growth of the bacteria” value does the source give for `CCc1nc(N)nc(N)c1C#CCc1cc(OC)ccc1OC` [UCP120B, 2,4-diamino-5-(3-(2,5-dimethoxyphenyl)prop-1-ynyl)-6-ethyl-pyrimidine] here?
A: The value was “modestly inhibits the growth of the bacteria”.
